The record followed here is ChEMBL document CHEMBL1201862, “PubChem BioAssay data set” (2004).

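Dose response: 5 concentrations. Exposure: 48 h. Format: 96-well plates. Endpoint: linear interpolation; highest concentration if not reached. Abbreviation: GI50, concentration required for 50% inhibition of growth.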 The source made the active and inactive calls. Cut-off read from the data, not from the text of the source: active = GI50 up to about 1.1 µM and inactive = higher.

Among the test systems are MDA-N; RXF 393; A549; M14; RPMI-8226; ACHN; T47D; SNB-75; A498; OVCAR-8; HCT-116; HOP-62; UACC-257; UO-31; U-251; MDA-MB-435; Malme-3M; DU-145; NCI/ADR-RES; HL-60.
Holding throughout (assay): inhibition of tumour cell growth, NCI panel, 48 h

In the case of `COc1cc(OCCN(C)C)c2[nH]c(C(=O)N3CC(CCl)c4c3cc(N)c3ccccc43)cc2c1` (stereo unspecified), the GI50 in the assay on MDA-N, with RXF 393, in the assay with A549, in the assay on M14, with RPMI-8226 and in the assay with ACHN was < 0.01 µM (active) throughout. Further, the GI50 in the assay on T47D is 0.0139 µM (active); in the assay on SNB-75 it was < 0.01 µM (active); with A498, < 0.01 µM (active); in the assay with OVCAR-8 it was < 0.01 µM (active); in the assay on HCT-116 it was < 0.01 µM (active); in the assay on HOP-62 it was < 0.01 µM (active). The GI50 in the assay with UACC-257, with UO-31, in the assay with U-251, in the assay with MDA-MB-435, in the assay on Malme-3M and in the assay with DU-145 was < 0.01 µM (active) each time. The GI50 with NCI/ADR-RES was < 0.01 µM (active).
For the compound `NS(=O)(=O)c1cc2c(cc1Cl)NC(Cc1ccccc1)NS2(=O)=O` (stereo unspecified) [BENZYLHYDROCHLOROTHIAZIDE], the GI50 with MDA-N was 53.7 µM (inactive); in the assay with RXF 393, > 100 µM (inactive); with A549, > 100 µM (inactive); in the assay on M14 it was > 100 µM (inactive); in the assay with RPMI-8226 it was 53.1 µM (inactive); with ACHN, > 100 µM (inactive). Besides, the GI50 with T47D was > 100 µM (inactive); in the assay on SNB-75 it was > 100 µM (inactive); with A498 it was > 100 µM (inactive); with OVCAR-8 it was > 100 µM (inactive); in the assay with HCT-116, 46.1 µM (inactive); in the assay with HOP-62, > 100 µM (inactive). Moreover, the GI50 was > 100 µM (inactive) in the assay with UACC-257; > 100 µM (inactive) in the assay with UO-31; > 100 µM (inactive) in the assay on U-251; 45.1 µM (inactive) with MDA-MB-435; > 100 µM (inactive) with Malme-3M; > 100 µM (inactive) with DU-145. Moreover, in the assay on NCI/ADR-RES, the GI50 was > 100 µM (inactive).
In the case of `Cc1ccc(-c2n[nH]c(=O)n2/N=C\c2ccccc2O)cc1`, the GI50 in the assay on MDA-N is > 100 µM (inactive); with RXF 393, 57.8 µM (inactive); in the assay on A549, > 100 µM (inactive); with M14, > 100 µM (inactive); with RPMI-8226 it was > 100 µM (inactive); in the assay on ACHN, > 100 µM (inactive). Also, the GI50 in the assay on T47D was 94 µM (inactive); with SNB-75, > 100 µM (inactive); in the assay on OVCAR-8 it was > 100 µM (inactive); in the assay on HCT-116, > 100 µM (inactive); in the assay on HOP-62 it was > 100 µM (inactive); with UACC-257, > 100 µM (inactive). Also, the GI50 in the assay on UO-31, in the assay with U-251, in the assay with MDA-MB-435, with HL-60, in the assay with Malme-3M and in the assay on DU-145 was > 100 µM (inactive) throughout. In the assay with NCI/ADR-RES, the GI50 is > 100 µM (inactive).
Regarding `CC(NC(=O)C(N)CC(=O)O)NC(=O)N(C)C(C)(C)C` (stereo unspecified), the GI50 in the assay with MDA-N, with RXF 393, with A549, with M14, in the assay with RPMI-8226 and in the assay with ACHN was > 100 µM (inactive) throughout. Also, the GI50 with T47D, with SNB-75, with OVCAR-8, in the assay on HCT-116, with HOP-62 and in the assay on UACC-257 was > 100 µM (inactive) throughout. Also, the GI50 in the assay with UO-31, with U-251, in the assay with MDA-MB-435, in the assay on HL-60, in the assay with Malme-3M and in the assay on DU-145 was > 100 µM (inactive) in each case. The GI50 with NCI/ADR-RES is > 100 µM (inactive).
Consider `c1ccc(C[n+]2ccc3c(c2)CCCC3)cc1`, for which the GI50 is > 100 µM (inactive) in the assay with MDA-N; > 100 µM (inactive) with RXF 393; 77.3 µM (inactive) in the assay on A549; 95.7 µM (inactive) in the assay on M14; 65.9 µM (inactive) in the assay with RPMI-8226; 64.6 µM (inactive) with ACHN. In addition, the GI50 in the assay with T47D is 45.3 µM (inactive); with SNB-75, 54.1 µM (inactive); in the assay on OVCAR-8 it was > 100 µM (inactive); with HCT-116, 93.1 µM (inactive); in the assay on HOP-62 it was > 100 µM (inactive); in the assay on UACC-257, 33.8 µM (inactive). Also, the GI50 in the assay with UO-31 was > 100 µM (inactive); with U-251 it was 55.1 µM (inactive); with MDA-MB-435, > 100 µM (inactive); in the assay with HL-60 it was 29.5 µM (inactive); in the assay on Malme-3M, 21.4 µM (inactive); in the assay with DU-145 it was > 100 µM (inactive). In addition, the GI50 in the assay with NCI/ADR-RES is > 100 µM (inactive).
Consider `O=C(c1ccccc1)C1C(C(=O)c2ccccc2)C(c2ccccc2)N(c2ccccc2)C1c1ccccc1` (stereo unspecified), for which the GI50 was > 100 µM (inactive) in the assay with MDA-N; > 100 µM (inactive) in the assay on RXF 393; > 100 µM (inactive) with A549; > 100 µM (inactive) with M14; 21.2 µM (inactive) in the assay on RPMI-8226; > 100 µM (inactive) with ACHN. In addition, the GI50 in the assay with T47D, in the assay with OVCAR-8, in the assay with HCT-116, in the assay on HOP-62, in the assay with UACC-257 and with UO-31 was > 100 µM (inactive) each time. The GI50 with U-251 is > 100 µM (inactive); in the assay on MDA-MB-435, > 100 µM (inactive); with HL-60 it was 5.48 µM (inactive); with Malme-3M it was > 100 µM (inactive); with DU-145 it was > 100 µM (inactive); with NCI/ADR-RES, > 100 µM (inactive).
As to `O=[N+]([O-])c1ccc(N/N=C2\C=CCCC2)c([N+](=O)[O-])c1`, the GI50 was > 100 µM (inactive) with MDA-N; > 100 µM (inactive) in the assay on A549; > 100 µM (inactive) in the assay with M14; > 100 µM (inactive) in the assay on RPMI-8226; 81.8 µM (inactive) in the assay on ACHN; > 100 µM (inactive) in the assay with T47D. Further, the GI50 with SNB-75 was 27.2 µM (inactive); in the assay on OVCAR-8 it was > 100 µM (inactive); with HCT-116, > 100 µM (inactive); in the assay with HOP-62, 63.5 µM (inactive); in the assay on UACC-257, > 100 µM (inactive); in the assay on UO-31, 39 µM (inactive). The GI50 with U-251, in the assay on MDA-MB-435, with HL-60, with Malme-3M, in the assay on DU-145 and in the assay on NCI/ADR-RES was > 100 µM (inactive) throughout.
As to `COc1cc(C2SC(=N)Nc3c2c(C)nn3C(=O)c2ccccc2O)cc(OC)c1OC` (stereo unspecified), the GI50 with MDA-N is 6.14 µM (inactive); in the assay on RXF 393 it was 8.51 µM (inactive); in the assay with A549 it was 4.24 µM (inactive); in the assay on M14, 5.92 µM (inactive); in the assay on RPMI-8226, > 10 µM (inactive); with ACHN, 4.32 µM (inactive). Moreover, the GI50 was 3.26 µM (inactive) with T47D; 1.87 µM (inactive) in the assay on SNB-75; 5 µM (inactive) with A498; > 10 µM (inactive) in the assay on OVCAR-8; 1.59 µM (inactive) in the assay with HCT-116; 6.15 µM (inactive) in the assay on HOP-62. Also, the GI50 in the assay on UACC-257 is > 10 µM (inactive); in the assay on UO-31, 6.18 µM (inactive); in the assay on U-251, 6.76 µM (inactive); in the assay on MDA-MB-435, 6.78 µM (inactive); with Malme-3M, > 10 µM (inactive); with DU-145, 5.12 µM (inactive). Further, in the assay on NCI/ADR-RES, the GI50 is 4.38 µM (inactive).
Take `O=c1n(/N=C/c2ccccc2)c(=O)n2n1C1C=CC2CC1`: the GI50 in the assay with MDA-N, in the assay with A549, in the assay with M14, with RPMI-8226, with ACHN and in the assay with T47D was > 100 µM (inactive) each time. Moreover, the GI50 with SNB-75, with A498, with OVCAR-8, in the assay with HCT-116, with HOP-62 and in the assay on UACC-257 was > 100 µM (inactive) each time. Further, the GI50 in the assay on UO-31, with U-251, in the assay on MDA-MB-435, in the assay on HL-60, in the assay with DU-145 and in the assay with NCI/ADR-RES was > 100 µM (inactive) throughout.
On to `CNC(=O)OCc1c2ccncc2c(C)c2c1[nH]c1ccccc12`, for which the GI50 with MDA-N is 0.501 µM (active); in the assay with RXF 393, < 0.0385 µM (active); with A549, 0.251 µM (active); in the assay on M14, 1.18 µM (inactive); with RPMI-8226, 0.134 µM (active); with ACHN it was 0.0841 µM (active). Besides, the GI50 was 0.331 µM (active) with T47D; 0.21 µM (active) in the assay on SNB-75; 0.202 µM (active) in the assay on A498; 0.125 µM (active) with OVCAR-8; 0.184 µM (active) with HCT-116; 0.494 µM (active) with HOP-62. For the same compound, the GI50 in the assay on UACC-257 is 0.587 µM (active); with UO-31, 0.231 µM (active); in the assay with U-251, 0.223 µM (active); in the assay on MDA-MB-435, 0.421 µM (active); in the assay on Malme-3M, 0.372 µM (active); in the assay on DU-145, 0.269 µM (active). In addition, the GI50 in the assay with NCI/ADR-RES is 0.24 µM (active).
On to `COc1ccc(C2CC(c3c(O)ccc4ccccc34)=NN2C(C)=O)cc1OC` (stereo unspecified), for which the GI50 was 20.7 µM (inactive) with MDA-N; 24.1 µM (inactive) with RXF 393; 24.9 µM (inactive) in the assay on A549; 24.1 µM (inactive) in the assay with M14; 12 µM (inactive) in the assay with RPMI-8226; 35.4 µM (inactive) with ACHN. The GI50 was 34.6 µM (inactive) in the assay with T47D; 19.8 µM (inactive) in the assay with SNB-75; 24.3 µM (inactive) in the assay with A498; 34.4 µM (inactive) in the assay on OVCAR-8; 15.3 µM (inactive) with HCT-116; 26.9 µM (inactive) in the assay with HOP-62. The GI50 with UACC-257 is 34.8 µM (inactive); in the assay with UO-31 it was 23.1 µM (inactive); in the assay on U-251, 29.6 µM (inactive); in the assay with MDA-MB-435, 21.3 µM (inactive); with Malme-3M, 31 µM (inactive); with DU-145, 36.2 µM (inactive). Besides, the GI50 in the assay on NCI/ADR-RES was 26.5 µM (inactive).
